Read-outs that look alike come from different tables or passages of the source.
Assays:
[1] = test system: HCV genotype 1b replicon; test: HCV replicon assay, genotype 1b replicon EC50; format: cell-based, Hepatitis C virus; conditions: Hepatitis C virus, genotype 1b replicon, read-out: EC50 [gt-1b]
In short: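 Assay format: compound titration on stable replicon cells, no G418 during treatment, 24 to 48 hours. Lysates were assayed for replicon RNA (hybridization/protection or TaqMan) or luciferase; EC50 fitted to four parameters against DMSO.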

[2] = molecular target: HCV NS3/4A protease genotype 1b (Hepatitis C virus genotype 1b, UniProt P26663); test: HCV NS3/4A protease time-resolved fluorescence (TRF) assay, Ki against genotype 1b; format: biochemical; conditions: IC50 [gt-1b] (nM), NS3/4A genotype 1b, enzyme 0.2 nM
In short: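 Enzyme 0.2 nM 1b / 0.4 nM A156T / 0.025 nM 3a; 30 min preinc. w/ cpd; 25 nM TRF peptide; 2.5 h RT; ex 340/em 615 time-delayed; 4-param IC50 → Ki = IC50/(1+[S]/KM).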

SMILES	EC50 ([1]; K+ salt) [nM]	IC50 ([2]; K+ salt) [nM]	EC50 ([1]; GETYPE1B|GT1B) [nM]	IC50 [2] [nM]	EC50 [1] [nM]
COc1ccc2nc(C3CCC3)c3c(c2c1)CC[C@]1(C[C@H]2C(=O)NC4(C(=O)NS(=O)(=O)C5(C)CC5)C[C@H]4/C=C\CCCCC[C@H](NC(=O)OC(C)(C)C)C(=O)N2C1)O3 (stereo partly drawn) [Example 46, tert-Butyl (1aR,3aS,3′R,9S,16aS,Z)-5′-cyclobutyl-9′-methoxy-1a-(1-methylcyclopropylsulfonylcarbamoyl)-3,8-dioxo-1a,1′,2,2′,3,3a,4,6,8,9,10,11,12,13,14,16a-hexadecahydro-1H-spiro[cyclopropa[e]pyrrolo[1,2-a][1,4]diazacyclopentadecine-5,3′-pyrano[2,3-c]quinoline]-9-ylcarbamate]	0.4	0.02	–	–	–
Cc1nc2ccccc2c2c1O[C@]1(CC2)C[C@H]2C(=O)N[C@]3(C(=O)NS(=O)(=O)C4(C)CC4)C[C@H]3/C=C\CCCCC[C@H](NC(=O)OC(C)(C)C(F)(F)F)C(=O)N2C1 [Example 47]	–	–	3.72	0.011	–
COc1ccc2nc(CC(F)(F)F)c3c(c2c1)CC[C@]1(C[C@H]2C(=O)N[C@]4(C(=O)NS(=O)(=O)C5(C)CC5)C[C@H]4/C=C\CCCCC[C@H](NC(=O)OCC(C)(C)C)C(=O)N2C1)O3 [Example 48, Neopentyl((2R,6S,13aS,14aR,16aS,Z)-9′-methoxy-14a-(((1-methylcyclopropyl)sulfonyl)carbamoyl)-5,16-dioxo-5′-(2,2,2-trifluoroethyl)-1′,2′,3,5,6,7,8,9,10,11, 13a,14,14a,15,16,16a-hexadecahydro-1H-spiro[cyclopropa[e]pyrrolo[1,2-a][1,4]diazacyclopentadecine-2,3′-pyrano[2,3-c]quinolin]-6-yl)carbamate]	–	–	–	0.006	1.1
COCCCOc1ccc2nc(C(F)(F)F)c3c(c2c1)CC[C@]1(C[C@H]2C(=O)N[C@]4(C(=O)NS(=O)(=O)C5(C)CC5)C[C@H]4/C=C\CCCCC[C@H](NC(=O)OC(C)(C)C)C(=O)N2C1)O3 [Example 51, tert-Butyl ((2R,6S,13aS,14aR,16aS,Z)-9′-(3-methoxypropoxy)-14a-(((1-methylcyclopropyl)sulfonyl)carbamoyl)-5,16-dioxo-5′-(trifluoromethyl)-1′,2′,3,5,6,7,8,9,10,11,13a, 14,14a,15,16,16a-hexadecahydro-1H-spiro[cyclopropa[e]pyrrolo[1,2-a][1,4]diazacyclopentadecine-2,3′-pyrano[2,3-c]quinolin]-6-yl)carbamate]	0.246	0.011	–	–	–
COc1ccc2nc(C(F)(F)F)c3c(c2c1)[C@H](O)C[C@]1(C[C@H]2C(=O)N[C@]4(C(=O)NS(=O)(=O)C5(C)CC5)C[C@H]4/C=C\CCCCC[C@H](NC(=O)OC(C)(C)C)C(=O)N2C1)O3 [Example 54, tert-Butyl [(1′R,2S,6S,12Z,13aS,14aR,16aS)-1′-hydroxy-9′-methoxy-14a-{[(1-methylcyclopropyl)sulfonyl]carbamoyl}-5,16-dioxo-5′-(trifluoromethyl) -1,1′,2′,5,6,7,8,9,10,11,13a,14,14a,15,16,16a-hexadecahydrospiro[cyclopropa[e]pyrrolo[1,2-a][1,4]diazacyclopentadecine-2,3′-pyrano[2,3-c]quinolin]-6-yl]carbamate]	–	–	–	0.012	1.18
COc1ccc2nc(C(F)(F)F)c3c(c2c1)[C@@H](O)C[C@]1(C[C@H]2C(=O)N[C@]4(C(=O)NS(=O)(=O)C5(C)CC5)C[C@H]4/C=C\CCCCC[C@H](NC(=O)OC(C)(C)C)C(=O)N2C1)O3 [Example 55, tert-Butyl [(1′S,2S,6S,12Z,13aS,14aR,16aS)-1′-hydroxy-9′-methoxy-14a-{[(1-methylcyclopropyl)sulfonyl]carbamoyl}-5,16-dioxo-5′-(trifluoromethyl) -1,1′,2′,5,6,7,8,9,10,11,13a,14,14a,15,16,16a-hexadecahydrospiro[cyclopropa[e]pyrrolo[1,2-a][1,4]diazacyclopentadecine-2,3′-pyrano[2,3-c]quinolin]-6-yl]carbamate]	–	–	–	0.007	0.578
COc1ccc2nc(C)c3c(c2c1)[C@H](F)C[C@]1(C[C@H]2C(=O)N[C@]4(C(=O)NS(=O)(=O)C5(C)CC5)C[C@H]4/C=C\CCCCC[C@H](NC(=O)OC(C)(C)C)C(=O)N2C1)O3 [Example 56, tert-Butyl ((1′R,2S,6S,13aS,14aR,16aS,Z)-1′-fluoro-9′-methoxy-5′-methyl-14a-(((1-methylcyclopropyl)sulfonyl)carbamoyl)-5,16-dioxo-1′,2′,3,5,6,7,8,9,10,11,13a,14,14a, 15,16,16a-hexadecahydro-1H-spiro[cyclopropa[e]pyrrolo[1,2-a][1,4]diazacyclopentadecine-2,3′-pyrano[2,3-c]quinolin]-6-yl)carbamate]	1.66	0.008	–	–	–
COc1ccc2nc(C)c3c(c2c1)CC[C@]1(C[C@H]2C(=O)N[C@]4(C(=O)NS(=O)(=O)C5(C)CC5)C[C@H]4/C=C\CCCCC[C@H](Nc4ncccn4)C(=O)N2C1)O3 [Example 57, (2R,6S,13aS,14aR,16aS,Z)-9′-methoxy-5′-methyl-N-((1-methylcyclopropyl)sulfonyl)-5,16-dioxo-6-(pyrimidin-2-ylamino)-1′,2′,3,5,6,7,8,9,10,11,13a,14,14a,15,16,16a-hexadecahydro-1H-spiro[cyclopropa[e]pyrrolo[1,2-a][1,4]diazacyclopentadecine-2,3′-pyrano[2,3-c]quinoline]-14a-carboxamide]	–	–	–	0.137	9.23
Cc1nc2ccc(C#N)cc2c2c1O[C@]1(CC2)C[C@H]2C(=O)N[C@]3(C(=O)NS(=O)(=O)C4(C)CC4)C[C@H]3/C=C\CCCCC[C@H](NC(=O)OC(C)(C)C)C(=O)N2C1 [Example 59, tert-Butyl ((2R,6S,13aS,14aR,16aS,Z)-9′-cyano-5′-methyl-14a-(((1-methylcyclopropyl)sulfonyl)carbamoyl)-5,16-dioxo-1′,2′,3,5,6,7,8,9,10,11,13a,14,14a,15,16,16a-hexadecahydro-1H-spiro[cyclopropa[e]pyrrolo[1,2-a][1,4]diazacyclopentadecine-2,3′-pyrano[2,3-c]quinolin]-6-yl)carbamate]	–	–	–	0.019	3.45
CC(C)(C)OC(=O)N[C@H]1CCCCC/C=C\[C@@H]2C[C@@]2(C(=O)NS(=O)(=O)C2(C)CC2)NC(=O)[C@@H]2C[C@]3(CCc4c(c(C(F)(F)F)nc5ccc(OCCO)cc45)O3)CN2C1=O [Example 60, tert-Butyl ((2R,6S,13aS,14aR,16aS,Z)-9′-(2-hydroxyethoxy)-14a-(((1-methylcyclopropyl)sulfonyl)carbamoyl)-5,16-dioxo-5′-(trifluoromethyl)-1′,2′,3,5,6,7,8,9,10,11,13a, 14,14a,15,16,16a-hexadecahydro-1H-spiro[cyclopropa[e]pyrrolo[1,2-a][1,4]diazacyclopentadecine-2,3′-pyrano[2,3-c]quinolin]-6-yl)carbamate]	–	–	–	0.009	1.23
Cc1nc2ccccc2c2c1O[C@]1(CC2)C[C@H]2C(=O)N[C@]3(C(=O)NS(=O)(=O)C4(C)CC4)C[C@H]3/C=C\CCCCC[C@H](NC(=O)N3CCCC3)C(=O)N2C1 [Example 61, (2R,6S,12Z,13aS,14aR,16aS)-5′-methyl-N-[(1-methylcyclopropyl)sulfonyl]-5,16-dioxo-6-[(pyrrolidin-1-ylcarbonyl)amino]-1,1′,2′,6,7,8,9,10,11,13a,14,15,16,16a-tetradecahydrospiro[cyclopropa[e]pyrrolo[1,2-a][1,4]diazacyclopentadecine-2,3′-pyrano[2,3-c]quinoline]-14a(5H)-carboxamide]	–	–	–	0.015	12.2
COc1ccc2nc(C(F)(F)F)c3c(c2c1)C=C[C@]1(CN2C(=O)[C@@H](NC(=O)OC(C)(C)C)CCCCC/C=C\[C@@H]4C[C@@]4(C(=O)NS(=O)(=O)C4(C)CC4)NC(=O)[C@@H]2C1C)O3 (stereo partly drawn) [Example 62, tert-Butyl ((2S,6S,13aS,14aR,16aS,Z)-9′-methoxy-1-methyl-14a-(((1-methylcyclopropyl)sulfonyl)carbamoyl)-5,16-dioxo-5′-(trifluoromethyl)-3,5,6,7,8,9,10,11,13a, 14,14a,15,16,16a-tetradecahydro-1H-spiro[cyclopropa[e]pyrrolo[1,2-a][1,4]diazacyclopentadecine-2,3′-pyrano[2,3-c]quinolin]-6-yl)carbamate]	–	–	–	0.016	0.26
COc1ccc2nc(C(F)(F)F)c3c(c2c1)[C@](C)(F)C[C@]1(C[C@H]2C(=O)N[C@]4(C(=O)NS(=O)(=O)C5(C)CC5)C[C@H]4/C=C\CCCCC[C@H](NC(=O)OC(C)(C)C)C(=O)N2C1)O3 [Example 63, tert-Butyl ((1′R,2S,6S,13aS,14aR,16aS,Z)-1′-fluoro-9′-methoxy-1-methyl-14a-(((1-methylcyclopropyl)sulfonyl)carbamoyl)-5,16-dioxo-5′-(trifluoromethyl)-1′,2′,3,5,6,7,8,9,1011,13a,14,14a,15,16,16a-hexadecahydro-1H-spiro[cyclopropa[e]pyrrolo[1,2-a][1,4]diazacyclopentadecine-2,3′-pyrano[2,3-c]quinolin]-6-yl)carbamate]	–	–	–	0.007	0.245
